The results in this text go back to patent US20020155084A1, “Nanoemulsion formulations” (The Regents of the University of the Michigan, priority 2000, published 2002).

The subject of this data set is hairy mouse skin. To be noted: 2:1 nanoemulsion, aqueous phase 0.05 M HEPES pH 7.4; 5 μg/ml inulin or 3 μg/ml tranexamic acid, FIG. 9.

As for inulin, the marker permeation slope was 0.233 % per hour per square centimeter.
